The source of these data is patent US4341895A (priority 1981, dated 1982).

Data set [1] is described as follows: Tail Flick (analgesic agonist activity). Format: in vivo. As to conditions: sc; rat, as free base; tested as p-toluenesulfonate salt.
A further data set concerns phenazocine. The data set can be described thus: Antagonist activity vs. phenazocine. Format: in vivo. To be noted: rat, s.c., as free base; doses in parentheses; tested as p-toluenesulfonate salt.
The next data set relates to ACh. The data set can be described thus: ACh (acetylcholine) analgesic test, procedure of Collier et al. Format: in vivo. As to conditions: sc; mouse, as free base; range in parentheses; tested as p-toluenesulfonate salt. From the text: (§1) The compounds of formula I and their acid-addition salts are useful as analgesic agents, as determined by standard tests performed on the compounds of formula I where R is ethoxycarbonyl and propionyl in the form of their p-toluenesulfonate salts.
(§2) ^a All activities are expressed in mg/kg s.c., free base.
^e Procedure (in mouse) of H.O.J. Collier, L. C. Dineen, C. A. Johnso
and C. Schneider, Br. J. Pharmacol. Chemother. 32, 295 (1968).

The nature of another data set: Straub Tail observation. As to conditions: mouse, s.c.; for locomotor activity (footnote i to Straub Tail): at 75 mg/kg (R = C2 H5 COO) or 30 & 60 mg/kg (R = C2 H5 CO). Format: in vivo.
From the text: as §1, §2

For another data set, the system named is Bradykinin. The data set can be described thus: Bradykinin analgesic test. Format: in vivo. To be noted: rat.
From the text: as §1, §2
^f G. Deffenu, L. Pegrassi and B. Lumachi, J. Pharm. Pharmacol. 18,
135 (1966); B. A. Berkowitz and E. L. Way, J. Pharmacol. Exp. Ther. 177,

The conditions of data set [2]: in vivo; cited from earlier work.

With `CCC(=O)N1[C@@H]2CC[C@H]1[C@H](O)[C@@H](NCc1ccccc1)C2` (relative stereo) [I (R = C2 H5 CO), 3α-Benzylamino-8-propionyl-1αH,5αH-nortropan-2β-ol], the values for the ED50 (in data set [1]; in the data set with ACh) were 44 ± 3.5 mg/kg and 16 mg/kg, respectively. In addition, in the data set with phenazocine, the “Antagonist activity vs. phenazocine” value was “inactive (10)”. For the same molecule, the “locomotor activity (footnote i to Straub Tail)” value in “Straub Tail observation” is on record as “Increased locomotor activity”.

Turning to `CCOC(=O)N1[C@@H]2CC[C@H]1[C@H](O)[C@@H](NCc1ccccc1)C2` (relative stereo) [I (R = C2 H5 COO), Ethyl 3α-benzylamino-2β-hydroxy-1αH,5αH-nortropane-8-carboxylate], the ED50 in data set [1] was determined as 56 ± 4 mg/kg; in the data set on Bradykinin (sc, as free base, range in parentheses, tested as p-toluenesulfonate salt), 21 mg/kg; with ACh, 6.9 mg/kg. For the same molecule, in the data set on phenazocine, the “Antagonist activity vs. phenazocine” value was “inactive (10 & 80)”. Moreover, the “depression (footnote h to Bradykinin ED50)” value in the data set with Bradykinin (10 mg/kg s.c.) is recorded as “Mild depression”; in the data set on Bradykinin (20 and 30 mg/kg s.c.), “depression”. In addition, the “Straub Tail (dose)” value in “Straub Tail observation” (as free base, tested as p-toluenesulfonate salt) stood at 75 mg/kg. The “locomotor activity (footnote i to Straub Tail)” value in “Straub Tail observation” is “Increased locomotor activity”.

With `CN1[C@@H]2CC[C@H]1CC(C(=O)O)(c1ccccc1)C2` (stereo partly shown) [3-phenyl-3-carboxytropane], in data set [2], the analgesic activity entry was “reported to have analgesic activity”.

As usually defined, the ED50 is the midpoint of the dose-response relation.
